PubChem BioAssay (NCI)
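Compound exposure: 48 hours, 5 concentrations, 96-well plates. Here, GI50 denotes the concentration required for 50% inhibition of growth. TGI denotes the concentration required for complete inhibition of growth.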

Assays:
Assay in all cases: inhibition of tumour cell growth, NCI panel, 48 h
DMS 273 small cell lung = tested on: DMS 273 small cell lung
RXF-631 renal = tested on: RXF-631 renal
LXFL 529 NSCLC = tested on: LXFL 529 NSCLC
XF 498 CNS = tested on: XF 498 CNS
HOP-18 NSCLC = tested on: HOP-18 NSCLC
KM20L2 colon = tested on: KM20L2 colon
M19-MEL melanoma = tested on: M19-MEL melanoma

Compound	TGI (DMS 273 small cell lung)	TGI (RXF-631 renal)	TGI (LXFL 529 NSCLC)	TGI (XF 498 CNS)	TGI (HOP-18 NSCLC)	TGI (KM20L2 colon)	TGI (M19-MEL melanoma)	GI50 (M19-MEL melanoma)
CC(c1cccc2ccccc12)/[N+]([O-])=C/c1ccccc1 (stereo not given)	> 100 µM	> 100 µM	> 100 µM	> 100 µM	> 100 µM	> 100 µM	–	–
CCCCc1c2c(nc3c1CCC/C3=C\c1ccccc1)C(=O)C(CN(C)C)CC2 (stereo not given)	41.1 µM	–	21 µM	28.2 µM	38.5 µM	35.6 µM	32 µM	–
COc1ccc2c3ccc4c(c3n(C)c2c1)C(=O)c1ccccc1C4=O	> 100 µM	–	> 100 µM	–	> 100 µM	> 100 µM	> 100 µM	–
COC(=O)N/N=C/c1oc(-c2cccc([N+](=O)[O-])c2)c(-c2cccc([N+](=O)[O-])c2)c1[N+](=O)[O-]	> 100 µM	–	> 100 µM	> 100 µM	> 100 µM	> 100 µM	> 100 µM	–
Cc1cc2c(s1)C(=O)c1sccc1C2=O	2.62 µM	–	2.5 µM	2.92 µM	2.81 µM	4.75 µM	–	–
CCOP(=O)(OCC)/C(C#N)=C/c1ccco1	–	> 100 µM	> 100 µM	> 100 µM	> 100 µM	–	> 100 µM	–
CC1=NN(C(=O)Cc2ccccc2)C(=O)/C1=C\C=C\c1ccccc1	> 100 µM	–	–	> 100 µM	> 100 µM	–	–	–
O=C(c1ccncc1)n1nc(-c2ccccc2)c(N=Nc2ccc([N+](=O)[O-])cc2)c1-c1ccccc1	> 100 µM	–	25.7 µM	> 100 µM	–	–	> 100 µM	–
CC(C)(C)[C@H]1CO[C@]2(C)[C@@H]3C[C@@H]3C(=O)N12	> 100 µM	> 100 µM	–	> 100 µM	–	> 100 µM	> 100 µM	–
CCOC(=O)CC[C@@H](NC(=O)c1ccc(N[C@@H]2c3cc4c(cc3C(c3cc(OC)c(O)c(OC)c3)C3C(=O)OC[C@@H]32)OCO4)cc1)C(=O)OCC (stereo not given in full)	0.114 µM	–	> 10 µM	–	> 10 µM	0.272 µM	–	–
COC(=O)CC1C(=O)OCc2c1cc1n(c2=O)Cc2c-1nc1ccccc1c2OC (stereo not given)	> 100 µM	–	> 100 µM	> 100 µM	> 100 µM	> 100 µM	> 100 µM	–
CCC1(N=[N+]=[N-])C(=O)Nc2cc(C)ccc2C1=O (stereo not given)	> 100 µM	–	> 100 µM	–	> 100 µM	> 100 µM	> 100 µM	–
[N-]=[N+]=NC1C(Br)C(=O)NC(=O)N1[C@H]1C[C@H](O)[C@@H](CO)O1 (stereo not given in full)	> 100 µM	–	> 100 µM	> 100 µM	–	> 100 µM	> 100 µM	91.5 µM
Cc1cc2oc(=O)[nH]c(=S)c2c(C)c1C	> 100 µM	–	> 100 µM	> 100 µM	> 100 µM	> 100 µM	> 100 µM	–
COC[n+]1cc2cc(OC)c(OC)cc2c2ccc3cc(OC)c(OC)cc3c21	–	> 100 µM	> 100 µM	–	> 100 µM	> 100 µM	> 100 µM	–
COc1cc2[nH]c(-c3cccc(N(C)C)c3)cc(=O)c2cc1OC	> 100 µM	–	> 100 µM	> 100 µM	9.35 µM	5.46 µM	> 100 µM	–
CCN(CC)Cc1cc(Nc2c3ccccc3nc3c2[nH]c2ccccc23)ccc1O	1.84 µM	4.37 µM	3.02 µM	3.18 µM	5.39 µM	2.41 µM	3.04 µM	–
COC(=O)c1c(C(=O)OC)c2cc(C(=O)c3ccccc3)ccn2c1Cl	90.4 µM	–	> 100 µM	66.6 µM	–	> 100 µM	> 100 µM	–
